This test concerns the target aldehyde dehydrogenase (Saccharomyces cerevisiae). In words: In vitro inhibitory activity against yeast Aldehyde dehydrogenase.

The values that follow come from BindingDB's records for doi:10.1021/jm990235p (Va Medical Center, 1999).

In general, IC50 refers to the concentration needed to halve the response being measured.

For the molecule `CCOC(=O)N(OC(=O)N(CC)CC)S(=O)(=O)c1ccccc1` [ethyl [(diethylamino)carbonyl]oxy(phenylsulfonyl)carbamate], the IC50 was found to be 169 µM.
